Assay results: US8765396B2, “Method of screening a test agent for activity to modulate an oxidative demethylation enzyme” (Arbor Assays LLC, priority 2009, dated 2014)

Molecular target: T1, human histone demethylase JMJD2A (catalytic domain, residues 1-350) (Homo sapiens, UniProt O75164)
T1 construct: recombinantly produced catalytic domain, residues 1-350, of the human histone demethylase JMJD2A
T1 sequence (O75164 1-350): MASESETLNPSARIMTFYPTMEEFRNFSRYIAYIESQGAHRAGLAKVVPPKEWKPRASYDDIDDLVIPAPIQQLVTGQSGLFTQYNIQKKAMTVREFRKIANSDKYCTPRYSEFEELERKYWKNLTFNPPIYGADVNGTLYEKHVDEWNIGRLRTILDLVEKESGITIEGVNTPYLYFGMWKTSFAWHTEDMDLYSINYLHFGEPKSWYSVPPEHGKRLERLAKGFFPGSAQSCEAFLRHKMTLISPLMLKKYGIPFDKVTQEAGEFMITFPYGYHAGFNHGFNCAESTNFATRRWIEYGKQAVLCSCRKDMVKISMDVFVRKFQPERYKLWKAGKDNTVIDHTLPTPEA
Assay: Jumonji type histone demethylase (JMJD2A) activity assay with Luminos reagent formaldehyde fluorescence detection
Assay type: biochemical
Conditions: 1.0 mM NOG; 0.5 mM 2-OG, 0.3 mM H3K9me3 peptide, 5 μM JMJD2A, 37° C., 30 minutes; triplicate
Method: A series of demethylase assays with Luminos reagent are performed. These assays are conducted with recombinantly produced catalytic domain, residues 1-350, of the human histone demethylase JMJD2A that demethylates the trimethylated forms of Lys9 and Lys36 in histone H3.
A positive control assay is performed using a 100 microliter assay cocktail of 20 mM HEPES pH 7.5, 50 mM NaCl, 1 mM Sodium Ascorbate, 0.05 mM FeSO4, and 5 μM JMJD2A. The assay is initiated by the addition of the cofactor 2-oxoglutarate (2-OG, 0.5 mM) and a 15-residue histone H3 trimethylated Lys9 (H3K9me3) substrate peptide (0.3 mM, H2N-[…](tri-methyl)STGGKA-amide) (SEQ ID NO. 1).
Three negative control reactions are performed in which 2-OG, the H3K9me3 peptide, and JMJD2A are omitted, respectively. […] Specifically, reactions are performed with 1.0 mM N-oxalylglycine (NOG), a competitive inhibitor of 2-OG, and desferoxamine (0.2 mM), a potent Fe(II) chelator that inhibits the oxidative reaction catalyzed by Fe(II)-dependent JmjC demethylases. […] Fifty microliters of the Luminos reagent solution prepared as described in Example 1 is then added to each reaction and the fluorescence is allowed to develop at 37° C. for 30 minutes. The fluorescence of the formaldehyde-Luminos reagent adduct is measured at 510 nm using an excitation wavelength of 440 nm with a Tecan Safire 2 microplate reader. […]

- diminishes fluorescence in comparison to the positive control assay: two-fold
Compound: O=C(O)CNC(=O)C(=O)O [NOG, N-oxalylglycine]
